# In ChEMBL document CHEMBL3046232, “Synthesis, pharmacological evaluation and molecular docking studies of indanone derivatives” (2012):
# How the values were obtained:
# Type in all cases: functional
# Mus musculus [1] = test: Analgesic activity in Mus musculus Swiss albino (mouse) assessed as increase in reaction time of paw licking or jump response at 50 mg/kg, po after 60 min by hot plate method
# Bacillus subtilis [2] = test: Antimicrobial activity against at Bacillus subtilis at 50 ug/ml by cup plate method; settings: read-out: IZ
# Bacillus subtilis [3] = test: Antimicrobial activity against at Bacillus subtilis at 100 ug/ml by cup plate method; settings: read-out: IZ
# Rattus norvegicus [4] = test: Anti-inflammatory activity in Rattus norvegicus Wistar albino (rat) assessed as protection against carrageenan-induced paw edema at 50 mg/kg after 3 hr
# Rattus norvegicus [5] = test: Anti-inflammatory activity in Rattus norvegicus Wistar albino (rat) assessed as protection against carrageenan-induced paw edema at 50 mg/kg after 2 hr
# Escherichia coli [6] = test: Antimicrobial activity against at Escherichia coli at 100 ug/ml by cup-plate method; settings: read-out: IZ
# Penicillium chrysogenum [7] = test: Antimicrobial activity against at Penicillium chrysogenum at 100 ug/ml by cup-plate method; settings: read-out: IZ
# Rattus norvegicus [8] = test: Anti-inflammatory activity in Rattus norvegicus Wistar albino (rat) assessed as protection against carrageenan-induced paw edema at 50 mg/kg after 30 min
# Rattus norvegicus [9] = test: Anti-inflammatory activity in Rattus norvegicus Wistar albino (rat) assessed as protection against carrageenan-induced paw edema at 50 mg/kg after 60 min
# Aspergillus niger [10] = test: Antimicrobial activity against at Aspergillus niger at 25 ug/ml by cup-plate method; settings: read-out: IZ
# Mus musculus [11] = test: Analgesic activity in Mus musculus Swiss albino (mouse) assessed as increase in reaction time of paw licking or jump response at 50 mg/kg, po after 30 min by hot plate method
# Escherichia coli [12] = test: Antimicrobial activity against at Escherichia coli at 25 ug/ml by cup-plate method; settings: read-out: IZ
# Rattus norvegicus [13] = test: Anti-inflammatory activity in Rattus norvegicus Wistar albino (rat) assessed as protection against carrageenan-induced paw edema at 50 mg/kg after 90 min
# Aspergillus niger [14] = test: Antimicrobial activity against at Aspergillus niger at 100 ug/ml by cup-plate method; settings: read-out: IZ
# Penicillium chrysogenum [15] = test: Antimicrobial activity against at Penicillium chrysogenum at 50 ug/ml by cup-plate method; settings: read-out: IZ
# Escherichia coli [16] = test: Antimicrobial activity against at Escherichia coli at 50 ug/ml by cup-plate method; settings: read-out: IZ
# Mus musculus [17] = test: Analgesic activity in Mus musculus Swiss albino (mouse) assessed as increase in reaction time of paw licking or jump response at 50 mg/kg, po after 90 min by hot plate method
# Aspergillus niger [18] = test: Antimicrobial activity against at Aspergillus niger at 50 ug/ml by cup-plate method; settings: read-out: IZ
# Penicillium chrysogenum [19] = test: Antimicrobial activity against at Penicillium chrysogenum at 25 ug/ml by cup-plate method; settings: read-out: IZ
# Bacillus subtilis [20] = test: Antimicrobial activity against at Bacillus subtilis at 25 ug/ml by cup plate method; settings: read-out: IZ
Compound,Activity (Mus musculus [1]),zone of inhibition at 50 µg/mL (Bacillus subtilis [2]),zone of inhibition at 100 µg/mL (Bacillus subtilis [3]),Activity (Rattus norvegicus [4]),Activity (Rattus norvegicus [5]),zone of inhibition at 100 µg/mL (Escherichia coli [6]),zone of inhibition at 100 µg/mL (Penicillium chrysogenum [7]),Activity (Rattus norvegicus [8]),Activity (Rattus norvegicus [9]),zone of inhibition at 25 µg/mL (Aspergillus niger [10]),Activity (Mus musculus [11]),zone of inhibition at 25 µg/mL (Escherichia coli [12]),Activity (Rattus norvegicus [13]),zone of inhibition at 100 µg/mL (Aspergillus niger [14]),zone of inhibition at 50 µg/mL (Penicillium chrysogenum [15]),zone of inhibition at 50 µg/mL (Escherichia coli [16]),Activity (Mus musculus [17]),zone of inhibition at 50 µg/mL (Aspergillus niger [18]),zone of inhibition at 25 µg/mL (Penicillium chrysogenum [19]),zone of inhibition at 25 µg/mL (Bacillus subtilis [20])
COc1ccc(-c2onc3c2C(=O)c2ccccc2-3)cc1OC,19.02%,12.8 mm,19.7 mm,7.32%,6.52%,24.5 mm,13.8 mm,6.21%,7.21%,6.5 mm,12.61%,7.25 mm,8.12%,17.8 mm,5.25 mm,11 mm,23.54%,13.8 mm,4.75 mm,–
O=C1c2ccccc2-c2noc(-c3ccccc3)c21,12.03%,12 mm,16.3 mm,26.21%,28.42%,30.9 mm,19.5 mm,21.44%,27.61%,9.75 mm,6.23%,9.79 mm,30.19%,22.8 mm,12.8 mm,16.9 mm,17.23%,16.8 mm,6 mm,9 mm
O=C1c2ccccc2-c2noc(-c3ccccc3[N+](=O)[O-])c21,7.62%,7.5 mm,14.2 mm,9.52%,8.01%,19.8 mm,14.2 mm,7.22%,6.33%,–,5.24%,5.25 mm,7.11%,19 mm,8.25 mm,12.8 mm,9.84%,7.25 mm,5.25 mm,4.25 mm
O=C1c2ccccc2-c2noc(-c3cccc([N+](=O)[O-])c3)c21,10.38%,7 mm,13.5 mm,6.44%,7.44%,17 mm,13.5 mm,2.02%,3.99%,4.25 mm,5.44%,–,5.52%,17 mm,7 mm,13.2 mm,14.2%,13.2 mm,–,4 mm
O=C1c2ccccc2-c2noc(-c3ccc(Cl)cc3)c21,12.8%,11.5 mm,18.5 mm,16.21%,15.11%,16 mm,12 mm,6.31%,12%,5.5 mm,7.18%,6 mm,12.16%,13 mm,8.5 mm,6.75 mm,16.1%,9.75 mm,–,5.25 mm
Cc1ccc(-c2onc3c2C(=O)c2ccccc2-3)cc1,23.12%,10.5 mm,15 mm,30.33%,36.45%,25.3 mm,15.5 mm,35.29%,43.66%,10.5 mm,15.55%,10 mm,45.72%,28 mm,6.75 mm,15 mm,27.01%,18.5 mm,–,6.77 mm
O=C1c2ccccc2-c2noc(-c3ccc(O)cc3)c21,23.74%,11.2 mm,17.5 mm,33.45%,36.33%,13.8 mm,14 mm,31.16%,41.46%,6 mm,16.52%,4.75 mm,42.6%,21 mm,6 mm,5.25 mm,27.87%,13 mm,4.35 mm,–
